Key:
[1] = molecular target: GDP-bound KRAS protein (aa 1-169), containing both G12C and C118A amino acid substitutions (Homo sapiens (Human), UniProt P01116, C118A/G12C); assay: Coupled Nucleotide Exchange Assay; format: biochemical; conditions: 5 min compound pre-incubation; inhibition of SOS-mediated nucleotide exchange; AlphaScreen
Description: For compounds in Table 2, the following assay conditions were employed: Coupled Nucleotide Exchange Assay: Purified GDP-bound KRAS protein (aa 1-169), containing both G12C and C118A amino acid substitutions and an N-terminal His-tag, was pre-incubated with a compound dose-response titration for 5 min in assay buffer (25 mM HEPES pH 7.4, 10 mM MgCl2, and 0.01% Triton X-100). Following compound pre-incubation, purified SOS protein (aa 564-1049) and GTP (Roche 10106399001) were added to the assay wells and incubated for an additional 30 min. To determine the extent of inhibition of SOS-mediated nucleotide exchange, purified GST-tagged cRAF (aa 1-149), nickel chelate AlphaLISA acceptor beads (PerkinElmer AL108R), and AlphaScreen glutathione donor beads (PerkinElmer 6765302) were added to the assay wells and incubated for 5 minutes. The assay plates were then read on a PerkinElmer EnVision Multilabel Reader, using AlphaScreen® technology, and data were analyzed using a 4-parameter logistic model to calculate IC50 values.

[2] = tested on: Phosphorylation of ERK1/2 in MIA PaCa-2 cells; assay: Phospho-ERK1/2 MSD Assay; format: cell-based; conditions: Homo sapiens, 2 hours compound treatment, 10 ng/mL EGF for 10 min, read-out: p-ERK IC50 (MIA PaCa-2)
Description: Phospho-ERK1/2 MSD Assay: MIA PaCa-2 (ATCC® CRL-1420™) and A549 (ATCC® CCL-185™) cells were cultured in RPMI 1640 Medium (ThermoFisher Scientific 11875093) containing 10% fetal bovine serum (ThermoFisher Scientific 16000044) and 1× penicillin-streptomycin-glutamine (ThermoFisher Scientific 10378016). Sixteen hours prior to compound treatment, MIA PaCa-2 or A549 cells were seeded in 96-well cell culture plates at a density of 25,000 cells/well and incubated at 37° C., 5% CO2. A compound dose-response titration was diluted in growth media, added to appropriate wells of a cell culture plate, and then incubated at 37° C., 5% CO2 for 2 hours. Following compound treatment, cells were stimulated with 10 ng/mL EGF (Roche 11376454001) for 10 min, washed with ice-cold Dulbecco's phosphate-buffered saline, no Ca^2+ or Mg^2+ (ThermoFisher Scientific 14190144), and then lysed in RIPA buffer (50 mM Tris-HCl pH 7.5, 1% Igepal, 0.5% sodium deoxycholate, 150 mM NaCl, and 0.5% sodium dodecyl sulfate) containing protease inhibitors (Roche 4693132001) and phosphatase inhibitors (Roche 4906837001). Phosphorylation of ERK1/2 in compound-treated lysates was assayed using Phospho-ERK1/2 Whole Cell Lysate kits (Meso Scale Discovery K151DWD) according to the manufacturer's protocol. Assay plates were read on a Meso Scale Discovery Sector Imager 6000, and data were analyzed using a 4-parameter logistic model to calculate IC50 values.

Chain of GDP-bound KRAS protein (aa 1-169), containing both G12C and C118A amino acid substitutions (P01116 other isoform, or with tags, fused parts or gaps G12C/C118A): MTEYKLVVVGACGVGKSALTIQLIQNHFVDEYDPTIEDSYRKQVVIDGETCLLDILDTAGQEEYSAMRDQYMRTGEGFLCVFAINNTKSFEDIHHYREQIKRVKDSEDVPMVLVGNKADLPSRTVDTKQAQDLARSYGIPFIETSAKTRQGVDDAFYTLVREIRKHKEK

Row | Structure (SMILES) | IC50 [1] [nM] | IC50 [2] [nM]
1 | C=CC(=O)N1[C@H](C)CN(c2nc(=O)n(-c3c(C)ccnc3C(C)C)c3nc(-c4ccccc4F)c(Cl)cc23)C[C@@H]1C (atropisomer, axis not shown; (M)) [Example 13, (M)-4-(4-Acryloyl-cis-3,5-dimethylpiperazin-1-yl)-6-chloro-7-(2-fluorophenyl)-1-(2-isopropyl-4-methylpyridin-3-yl)pyrido[2,3-d]pyrimidin-2(1H)-one] | 53 | 46
2 | C=CC(=O)N1[C@H](C)CN(c2nc(=O)n(-c3c(C)ccnc3C(C)C)c3nc(-c4c(O)cccc4F)c(Cl)cc23)C[C@@H]1C (atropisomer, axis not shown; (M)) [Example 14, (M)-4-(4-Acryloyl-cis-3,5-dimethylpiperazin-1-yl)-6-chloro-7-(2-fluoro-6-hydroxyphenyl)-1-(2-isopropyl-4-methylpyridin-3-yl)pyrido[2,3-d]pyrimidin-2(1H)-one] | 16 | 35
3 | C=CC(=O)N1[C@H](C)CN(c2nc(=O)n(-c3c(C)ccnc3C(C)C)c3nc(-c4c(N)cccc4F)c(Cl)cc23)C[C@@H]1C (atropisomer, axis not shown; (M)) [Example 15, (M)-4-(4-Acryloyl-cis-3,5-dimethylpiperazin-1-yl)-7-(2-amino-6-fluorophenyl)-6-chloro-1-(2-isopropyl-4-methylpyridin-3-yl)pyrido[2,3-d]pyrimidin-2(1H)-one] | – | 15
4 | C=CC(=O)N1[C@H](C)CN(c2nc(=O)n(-c3c(C)ccnc3C(C)C)c3nc(-c4ccccc4F)c(F)cc23)C[C@@H]1C (atropisomer, axis not shown; (M)) [Example 16, (M)-4-(4-Acryloyl-cis-3,5-dimethylpiperazin-1-yl)-6-fluoro-7-(2-fluorophenyl)-1-(2-isopropyl-4-methylpyridin-3-yl)pyrido[2,3-d]pyrimidin-2(1H)-one] | 512 | –
5 | C=CC(=O)N1[C@H](C)CN(c2nc(=O)n(-c3c(C)ccnc3C(C)C)c3nc(-c4c(O)cccc4F)c(F)cc23)C[C@@H]1C (atropisomer, axis not shown; (M)) [Example 17, (M)-4-(4-Acryloyl-cis-3,5-dimethylpiperazin-1-yl)-6-fluoro-7-(2-fluoro-6-hydroxyphenyl)-1-(2-isopropyl-4-methylpyridin-3-yl)pyrido[2,3-d]pyrimidin-2(1H)-one] | 117 | 105
6 | C=CC(=O)N1[C@H](C)CN(c2nc(=O)n(-c3c(C)ccnc3C(C)C)c3nc(-c4c(N)cccc4F)c(F)cc23)C[C@@H]1C (atropisomer, axis not shown; (M)) [Example 18, (M)-4-(4-Acryloyl-cis-3,5-dimethylpiperazin-1-yl)-7-(2-amino-6-fluorophenyl)-6-fluoro-1-(2-isopropyl-4-methylpyridin-3-yl)pyrido[2,3-d]pyrimidin-2(1H)-one] | 69 | 75
7 | C=CC(=O)N1C[C@H](C)N(c2nc(=O)n(-c3c(C)ccnc3C(C)C)c3nc(-c4ccccc4F)c(Cl)cc23)C[C@H]1C [Example 1, 4-((2S,5R,M)-4-Acryloyl-2,5-dimethylpiperazin-1-yl)-6-chloro-7-(2-fluorophenyl)-1-(2-isopropyl-4-methylpyridin-3-yl)pyrido[2,3-d]pyrimidin-2(1H)-one] | 40 | 26
8 | C=CC(=O)N1C[C@H](C)N(c2nc(=O)n(-c3c(C)ccnc3C(C)C)c3nc(-c4c(O)cccc4F)c(Cl)cc23)C[C@H]1C [Example 2, 4-((2S,5R,M)-4-Acryloyl-2,5-dimethylpiperazin-1-yl)-6-chloro-7-(2-fluoro-6-hydroxyphenyl)-1-(2-isopropyl-4-methylpyridin-3-yl)pyrido[2,3-d]pyrimidin-2(1H)-one] | 27 | 16
9 | C=CC(=O)N1C[C@H](C)N(c2nc(=O)n(-c3c(C)ccnc3C(C)C)c3nc(-c4c(N)cccc4F)c(Cl)cc23)C[C@H]1C [Example 3, 4-((2S,5R,M)-4-Acryloyl-2,5-dimethylpiperazin-1-yl)-7-(2-amino-6-fluorophenyl)-6-chloro-1-(2-isopropyl-4-methylpyridin-3-yl)pyrido[2,3-d]pyrimidin-2(1H)-one] | 13 | 9
10 | C=CC(=O)N1C[C@H](C)N(c2nc(=O)n(-c3c(C)ccnc3C(C)C)c3nc(-c4ccccc4F)c(F)cc23)C[C@H]1C [Example 4, 4-((2S,5R,M)-4-Acryloyl-2,5-dimethylpiperazin-1-yl)-6-fluoro-7-(2-fluorophenyl)-1-(2-isopropyl-4-methylpyridin-3-yl)pyrido[2,3-d]pyrimidin-2(1H)-one] | 206 | 102
11 | C=CC(=O)N1C[C@H](C)N(c2nc(=O)n(-c3c(C)ccnc3C(C)C)c3nc(-c4c(O)cccc4F)c(F)cc23)C[C@H]1C [Example 5, 4-((2S,5R,M)-4-Acryloyl-2,5-dimethylpiperazin-1-yl)-6-fluoro-7-(2-fluoro-6-hydroxyphenyl)-1-(2-isopropyl-4-methylpyridin-3-yl)pyrido[2,3-d]pyrimidin-2(1H)-one] | 79 | 46
12 | C=CC(=O)N1C[C@H](C)N(c2nc(=O)n(-c3c(C)ccnc3C(C)C)c3nc(-c4c(N)cccc4F)c(F)cc23)C[C@H]1C [Example 6, 4-((2S,5R,M)-4-Acryloyl-2,5-dimethylpiperazin-1-yl)-7-(2-amino-6-fluorophenyl)-6-fluoro-1-(2-isopropyl-4-methylpyridin-3-yl)pyrido[2,3-d]pyrimidin-2(1H)-one] | 38 | 26
13 | C=CC(=O)N1C[C@H](C)N(c2nc(=O)n(-c3c(C(C)C)ncnc3C(C)C)c3nc(-c4ccccc4F)c(Cl)cc23)C[C@H]1C [Example 7, 4-((2S,5R)-4-Acryloyl-2,5-dimethylpiperazin-1-yl)-6-chloro-1-(4,6-diisopropylpyrimidin-5-yl)-7-(2-fluorophenyl)pyrido[2,3-d]pyrimidin-2(1H)-one] | 49 | 26
14 | C=CC(=O)N1C[C@H](C)N(c2nc(=O)n(-c3c(C(C)C)ncnc3C(C)C)c3nc(-c4c(O)cccc4F)c(Cl)cc23)C[C@H]1C [Example 8, 4-((2S,5R)-4-Acryloyl-2,5-dimethylpiperazin-1-yl)-6-chloro-1-(4,6-diisopropylpyrimidin-5-yl)-7-(2-fluoro-6-hydroxyphenyl)pyrido[2,3-d]pyrimidin-2(1H)-one] | 30 | 15
15 | C=CC(=O)N1[C@H](C)CN(c2nc(=O)n(-c3c(C(C)C)ncnc3C(C)C)c3nc(-c4ccccc4F)c(F)cc23)C[C@@H]1C [Example 22, 4-(4-Acryloyl-cis-3,5-dimethylpiperazin-1-yl)-1-(4,6-diisopropylpyrimidin-5-yl)-6-fluoro-7-(2-fluorophenyl)pyrido[2,3-d]pyrimidin-2(1H)-one] | 560 | –
16 | C=CC(=O)N1[C@H](C)CN(c2nc(=O)n(-c3c(C(C)C)ncnc3C(C)C)c3nc(-c4c(N)cccc4F)c(F)cc23)C[C@@H]1C [Example 24, 4-(4-Acryloyl-cis-3,5-dimethylpiperazin-1-yl)-7-(2-amino-6-fluorophenyl)-1-(4,6-diisopropylpyrimidin-5-yl)-6-fluoropyrido[2,3-d]pyrimidin-2(1H)-one] | 396 | –

— patent US11306087B2, “Inhibitors of KRAS G12C and methods of using the same” (Amgen Inc., priority 2017, dated 2022)
